Test results reported in publication PMC3006138, “Fexinidazole – A New Oral Nitroimidazole Drug Candidate Entering Clinical Development for the Treatment of Sleeping Sickness” (PLoS Neglected Tropical Diseases, 2010).
“And” between values parts separate entries of the source, which are not always exact repeats. Equal entries are not always repeated. Where two headings read alike, the source gives them in different places.

Legend:
[1] = system: rat liver cells; assay: Ex vivo unscheduled DNA synthesis; format: in vivo; conditions: 75 mg/kg, positive control
Method: Groups of young male Sprague-Dawley rats received fexinidazole at doses of 500, 1000, or 2000 mg/kg orally, and the livers were sampled either 2–4 h or 12–14 h after administration. Hepatocyte suspensions were prepared and incubated in the presence of […] thymidine. Slides of fixed hepatocytes were coated in photographic emulsion and stored for 14 days at 4°C in the dark. The silver grains above the nuclei or cytoplasm (background) were counted, providing a measure of DNA uptake during DNA repair. The difference between these two counts indicated the extent of DNA repair (nuclear net grain count).

[2] = Hepatocyte intrinsic clearance and metabolite profile; format: in vitro ADME, mouse; conditions: male, CD-1, mouse, cryopreserved hepatocytes, 1 µM
Method: (§1) Fexinidazole was incubated with cryopreserved hepatocytes from male CD-1 mice, male Sprague Dawley rats, male beagle dogs, male cynomolgus monkeys, and from pooled white or African-American human donor samples (purchased commercially), at concentrations of 1 µM and 10 µM. […] The incubated samples were analyzed by LC-MS after extraction into acetonitrile.
(§2) A quality control analysis of fexinidazole was performed via 1H-NMR in DMSO and LC- […]
(§3) provided by the Swiss Tropical Institute (Basel, Switzerland).
(§4) Reagents and solvents were of analytical grade and obtained from Sigma-Aldrich (St. Louis, […]
(§5) Cryopreserved hepatocytes from the male CD1 mouse, lot CSI; male Sprague Dawley rat, lot LPL; male beagle dog, lot BWX; male cynomolgus monkey, lot EHH; and pooled human samples, lot MJI, were purchased from In Vitro Technologies Inc (Baltimore, Maryland, […]
(§6) 5.4. In vitro Incubations
(§7) On the day of the experiment a 10 mM stock solution of fexinidazole in DMSO was prepared and, within 3 hours, aliquots of this freshly prepared solution, after suitable dilution, were added to the incubation matrix, to reach fexinidazole final concentrations of 1 and 10 µM. The final percentage of DMSO was 0.01% in the incubation samples for the […]
(§8) On the day of experiment, the cryopreserved hepatocytes were thawed following the detailed instructions provided by the supplier.
(§9) The number of viable cells was determined using a Trypan Blue exclusion method.
(§10) 5.4.1. Intrinsic Clearance Study […]
(§11) µM with mouse, rat, dog, monkey and human hepatocytes (300000 cells/mL for the mouse and 1 million cells/mL for the other species) in a final incubation volume of 0.75 mL […]
(§12) Incubations were performed in duplicate in a 48-well plate under shaking. Sampling was performed using an automatic liquid handling system (Multiprobe II EX, Packard). At 0, 1, 5, 10, 15, 20, 30, 60 and 120 minutes, 50 µL aliquots of the incubates were taken, then 80 µL of ice-cold acetonitrile and 20 µL of 1 µM warfarin in acetonitrile (internal standard) were added, and samples centrifuged at 2000 rpm for 20 min. The supernatant was analyzed by LC-MS/MS. […]
(§13) the medium alone at t = 0 and 120 minutes.
(§14) For the determination of phase I and phase II activity of hepatocytes, 7-ethoxycoumarin (7-EC) 1 µM, and 7-hydroxycoumarin (7-HC) 30 µM were used as positive controls and incubated under the same conditions as fexinidazole. Aliquots of incubates were taken at 0, 10, 20, 30, 60 and 120 minutes and processed as fexinidazole samples.
(§15) 5.4.2. Metabolite Profile Study
(§16) For metabolite profiling, fexinidazole was incubated at a concentration of 10 µM with mouse, rat, dog, monkey and human hepatocytes (300000 cells/mL for the mouse and 1 million cells/mL for the other species) in a final incubation volume of 2 mL Leibovitz L-15 […]
(§17) Aliquots of the incubation samples were taken at t = 0, 30 and 120 minutes; the metabolism was stopped by the addition of an equal volume of cold acetonitrile and the samples centrifuged at 1500 rpm for 20 min. The supernatant was stored at -20°C until analysis. Control incubations were performed with the compound in the medium alone […]
(§18) 5.5. Analysis of Samples for Intrinsic Clearance Determination
(§19) The analysis of the samples for intrinsic clearance determination was performed by an LC-MS/MS method, using the following conditions:
(§20) HPLC Equipment and Conditions
(§21) HPLC system Agilent 1100 binary pump (Agilent, Palo Alto, USA)
(§22) Autosampler CTC Pal (Alfatech, San Jose, USA)
(§23) Analytical column Guard Column SB-C8 4.6 x 12.5 mm, 5 µm (Zorbax)
(§24) Column temperature ambient
(§25) Mobile phase A 10 mM ammonium formate pH 4.0: acetonitrile (95:5, v:v)
(§26) Mobile phase B 10 mM ammonium formate pH 4.0: acetonitrile (5:95, v:v) […]
(§27) Gradient conditions Step Total time (min) flow (µL/min) %A % B […]
(§28) MS Equipment and Conditions
(§29) Mass spectrometer API 4000 Triple Quadrupole (MDS-Sciex, Toronto, […]
(§30) Source Turbo Ion Spray (TIS)
(§31) Ion mode Positive for fexinidazole and 7-EC.
(§32) Negative for 7-HC, 7-HC sulphate and 7-HC glucuronide.

[3] = as above; format: in vitro ADME, rat; conditions: male, Sprague Dawley, rat, cryopreserved hepatocytes, 1 µM
Method: as §1, §2, §3, §4, §5, §6, §7, §8, §9, §10, §11, §12, §13, §14, §15, §16, §17, §18, §19, §20, §21, §22, §23, §24, §25, §26, §27, §28, §29, §30, §31, §32

[4] = as above; format: in vitro ADME, dog; conditions: male, beagle, dog, cryopreserved hepatocytes, 1 µM
Method: as §1, §2, §3, §4, §5, §6, §7, §8, §9, §10, §11, §12, §13, §14, §15, §16, §17, §18, §19, §20, §21, §22, §23, §24, §25, §26, §27, §28, §29, §30, §31, §32

[5] = as above; format: in vitro ADME, cynomolgus monkey; conditions: male, cynomolgus, cynomolgus monkey, cryopreserved hepatocytes, 1 µM
Method: as §1, §2, §3, §4, §5, §6, §7, §8, §9, §10, §11, §12, §13, §14, §15, §16, §17, §18, §19, §20, §21, §22, §23, §24, §25, §26, §27, §28, §29, §30, §31, §32

[6] = as above; format: in vitro ADME, human; conditions: human, cryopreserved pooled hepatocytes, 1 µM
Method: as §1, §2, §3, §4, §5, §6, §7, §8, §9, §10, §11, §12, §13, §14, §15, §16, §17, §18, §19, §20, §21, §22, §23, §24, §25, §26, §27, §28, §29, §30, §31, §32

[7] = as above; format: in vitro ADME, human; conditions: human
Method: as §1
Fexinidazole sulfoxide, lot 1106-I-0170, 99.3% purity, and fexinidazole sulfone, lot 1106-I-0171, 99.9% purity, were provided by the Sponsor.
Cryopreserved hepatocytes of five single donors, lots EHI, REL, KSE […]
ZIJ and MRS, were purchased from In Vitro Technologies Inc (Baltimore, Maryland, USA).
The certificates of analysis are reported in Appendix 1.
as §4
7.5. In Vitro Incubations
as §7
The cryopreserved hepatocytes were thawed according to the supplier’s procedure and the number of viable cells was determined using the Trypan Blue exclusion method. Viabilities were 92% for lot EHI, 89% for lot REL, 82% for lot KSE, 86% for lot ZIJ and 86% for lot MRS in the intrinsic clearance study. In the metabolite profile study viabilities were 91% for lot EHI, 90% for lot REL, 85% for lot KSE, 84% for lot ZIJ and 87% for lot MRS.
Afterwards, the same amount of viable cells for each donor were pooled and used for the incubations of fexinidazole.
7.5.1. Intrinsic Clearance Study […]
as §12, with “µM with pooled human hepatocytes (1 million cells/mL) in a final incubation volume of 1 mL Leibovitz L-15 medium, at 37°C. Incubations” for “Incubations”
The chemical stability of fexinidazole was checked by incubating the compound at 37°C in the medium alone at t = 0 and 120 minutes.
For the determination of phase I and phase II activities of hepatocytes, 7-ethoxycoumarin (7-ETC) 1 µM, and 7-hydroxycoumarin (7-HC) 30 µM were used as positive controls and incubated under the same conditions as fexinidazole. Aliquots of incubates were taken at 0, 1, 5, 10, 15, 20, 30, 60 and 120 minutes and processed as fexinidazole samples.
7.5.2. Metabolite Profile Study
For metabolite profiling, fexinidazole was incubated at a concentration of 10 µM with pooled human hepatocytes (1 million cells/mL) in a final incubation volume of 2 mL Leibovitz L-15 medium, at 37°C. Aliquots of the incubation samples were taken at t = 0, 30 and 120 minutes; the metabolism was stopped by the addition of an equal volume of cold acetonitrile and the samples centrifuged at 1100 rpm for 20 min. The supernatant was stored at -20°C until analysis. Control incubations were performed with the compound in the medium alone for 120 minutes.
7.6. Analysis of the Samples of Intrinsic Clearance Study
as §19, §20
HPLC system 1100 binary pump (Agilent, Palo Alto, USA)
Autosampler 2777 (Waters)
as §23, §24, §25, §26, §27

[8] = system: human lymphocytes; assay: In vitro micronucleus test; format: cell-based; conditions: 6.25 µg/mL, +S9, positive control
Method: Duplicate human lymphocyte cultures were prepared from the pooled blood of two donors in two independent experiments. […] The test concentrations for micronucleus analysis were selected by evaluating the effect of fexinidazole on the replication index (RI). In each experiment, micronuclei were analysed at three concentrations. Similar tests were carried out on fexinidazole sulfone. As per the Ames test, this was carried out in the absence of rat liver S9 only.

[9] = system: bone marrow polychromatic erythrocytes; assay: In vivo bone marrow micronucleus test; parameters: species or system mouse; conditions: 4.0 mg/kg, positive control
Method: Groups of six young adult male Crl:CD-1 (ICR) mice were treated with fexinidazole at two oral doses of 0, 500, 1000, or 2000 mg/kg given 24 h apart, and bone marrows were harvested 24 h after the second dose. Slides of bone marrow cells were prepared, Giemsa stained, and 2000 polychromatic erythrocytes per animal were scored for micronuclei.

[10] = system: T. b. rhodesiense (STIB 900); assay: In vitro trypanocidal assay (Alamar Blue); format: cell-based, Trypanosoma brucei rhodesiense; conditions: Trypanosoma brucei, 72 h; read-out: IC50
Method: (§33) 10 µL of Alamar Blue was added for the final 3 h to determine viability. […] The IC50 values were calculated from the sigmoidal inhibition curves. For cytotoxicity, 4×10^4/mL L-6 rat skeletal myoblast cells were used, and incubations and assessments carried out as above.

[11] = system: T. b. gambiense (STIB 930); assay: In vitro trypanocidal assay (Alamar Blue); format: cell-based, Trypanosoma brucei gambiense; conditions: Trypanosoma brucei, 72 h; read-out: IC50
Method: Parasites were cultured with or without the test article at a concentration of 3×10^4/mL in Minimal Essential Medium, according to Baltz et al., with the following modifications: 0.2 mM 2-mercaptoethanol, 1 mM Na-pyruvate, 0.5 mM hypoxanthine and 15% heat inactivated horse serum at 37°C in 5% CO2 in 96-well microtitre plates for 72 h. 10 µL of Alamar Blue was added for the final 3 h to determine viability. The assay was assessed by reading the fluorescence in each well at an excitation wavelength of 536 nm and at an emission wavelength of 588 nm. The IC50 values were calculated from the sigmoidal inhibition curves. For cytotoxicity, 4×10^4/mL L-6 rat skeletal myoblast cells were used, and incubations and assessments carried out as above.

[12] = system: L-6 rat myoblast cells; assay: Cytotoxicity assay; format: cell-based; conditions: 72 h, read-out: IC50
Method: as §33

With `CC(=O)Nc1ccc2c(c1)Cc1ccccc1-2` [2-acetamidofluorene, reference compound] the “Net nuclear grain count (12–14 h)” value [1] was 9.8.

`CCOc1ccc2ccc(=O)oc2c1` [7-ethoxycoumarin, reference compound] gave a half-life at 1 µM [2] of 2.6 min, a CLint scaled at 1 µM ([2]; read-out: CLint in vitro) of 2380 mL/min/kg and a hepatocyte CLint at 1 µM ([2]; read-out: CLint in vitro) of 901 µL/min/1e6 cells. It also gave a half-life at 1 µM [3] of 13.2 min, a CLint scaled at 1 µM ([3]; read-out: CLint in vitro) of 251 mL/min/kg and a hepatocyte CLint at 1 µM ([3]; read-out: CLint in vitro) of 52.4 µL/min/1e6 cells. For the same molecule, the half-life at 1 µM [4] was 1.7 min, the CLint scaled at 1 µM ([4]; read-out: CLint in vitro) was 3110 mL/min/kg and the hepatocyte CLint at 1 µM ([4]; read-out: CLint in vitro) was 405 µL/min/1e6 cells. For the same molecule, the half-life at 1 µM [5] was 2.5 min, the CLint scaled at 1 µM ([5]; read-out: CLint in vitro) was 1480 mL/min/kg and the hepatocyte CLint at 1 µM ([5]; read-out: CLint in vitro) was 272 µL/min/1e6 cells. The half-life at 1 µM [6] was 4.8 min, the CLint scaled at 1 µM ([6]; read-out: CLint in vitro) was 345 mL/min/kg and the hepatocyte CLint at 1 µM ([6]; read-out: CLint in vitro) was 144 µL/min/1e6 cells. It also gave a half-life at 1 µM [7] of 6.4 min, a CLint scaled at 1 µM ([7]; read-out: CLint in vitro) of 258 mL/min/kg and a hepatocyte CLint at 1 µM ([7]; read-out: CLint in vitro) of 108 µL/min/1e6 cells.

With `O=P1(N(CCCl)CCCl)NCCCO1` (centres unmarked) [Cyclophosphamide, reference compound] the Micronucleated binucleate cells ([8]; 24-h PHA) was 3.60%, the Micronucleated binucleate cells ([8]; 48-h PHA) was 12.85% and the “Micronucleated PCE/1000” value [9] was 19.3. For the same molecule, the PCE/NCE [9] was 0.89.

In the case of `NCCCC(N)(C(=O)O)C(F)F` (centres unmarked) [Eflornithine], the IC50 [10] is reported as 0.9 µg/mL and 3.8 µM, the IC50 [11] is reported as 0.4 µg/mL and 1.67 µM and the IC50 [12] is reported as 12 µg/mL and 51 µM.
